Measured values as given in patent US12600710B2, “Beta-catenin and b-cell lymphoma 9 (BCL9) inhibitors” (H. LEE MOFFITT CANCER CENTER AND RESEARCH INSTITUTE, INC., priority 2018, dated 2026).
Where a name gives a salt, the structure may show the parent alone. Read-outs that look alike come from different tables or passages of the source.

Target: T1, β-catenin/BCL9 PPI (Homo sapiens, UniProt P35222)
T1 construct: Wild-type full-length β-catenin were cloned into a pET-28b vector carrying a C-terminal 6×histidine; made in house; host or cells: Escherichia coli BL21 DE3 (β-catenin); BCL9 peptide chemically synthesized
T1 sequence (P35222 1-781): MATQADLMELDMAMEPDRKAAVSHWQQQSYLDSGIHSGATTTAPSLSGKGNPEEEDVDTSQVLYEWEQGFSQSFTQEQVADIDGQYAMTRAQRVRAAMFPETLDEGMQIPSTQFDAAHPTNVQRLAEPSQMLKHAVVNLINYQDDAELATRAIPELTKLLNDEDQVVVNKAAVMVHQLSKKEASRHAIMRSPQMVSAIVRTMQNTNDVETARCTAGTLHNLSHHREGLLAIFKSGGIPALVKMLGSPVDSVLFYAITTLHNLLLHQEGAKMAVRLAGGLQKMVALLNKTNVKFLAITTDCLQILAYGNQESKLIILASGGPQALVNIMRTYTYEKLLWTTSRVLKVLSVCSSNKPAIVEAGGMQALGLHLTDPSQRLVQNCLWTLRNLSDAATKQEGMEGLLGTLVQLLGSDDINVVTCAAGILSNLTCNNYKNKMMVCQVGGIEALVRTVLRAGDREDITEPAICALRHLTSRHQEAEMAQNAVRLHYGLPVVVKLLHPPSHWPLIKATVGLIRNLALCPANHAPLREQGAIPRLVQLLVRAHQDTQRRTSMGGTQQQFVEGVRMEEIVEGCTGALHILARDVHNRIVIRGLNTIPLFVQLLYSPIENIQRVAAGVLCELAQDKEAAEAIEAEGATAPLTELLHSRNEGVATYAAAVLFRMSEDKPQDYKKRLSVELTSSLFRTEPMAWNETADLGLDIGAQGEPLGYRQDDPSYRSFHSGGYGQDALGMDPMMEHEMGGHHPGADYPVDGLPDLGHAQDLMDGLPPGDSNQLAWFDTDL
Test: AlphaScreen competitive inhibition assay of the β-catenin/BCL9 PPI
Assay type: binding
Settings: mean ± SD, triplicate, Ki derived from IC50 (Nikolovska-Coleska method)
Experimental: AlphaScreen competitive inhibition assays. For the competitive inhibition assays of the β-catenin/BCL9 PPI, the negative control (equivalent to 0% inhibition) refers to 5.0 nM of biotinylated BCL9, 40 nM of His6-tagged β-catenin, and 10 μg/mL of donor and acceptor beads in a final volume of 25 μL assay buffer, but no tested inhibitor present. The positive control (equivalent to 100% inhibition) refers to 5.0 nM of biotinylated BCL9 and 10 μg/mL of donor and acceptor beads in a final volume of 25 μL assay buffer.
For the β-catenin/BCL9 assay, 5 nM of biotinylated BCL9 and 40 nM of His6-tagged β-catenin were incubated in assay buffer at 4° C. for 30 min. Different concentrations of the tested inhibitor were added and incubated in 20 μL assay buffer at 4° C. for another 1 h. All of the above assay plates were covered and gently mixed on an orbital shaker. The donor and acceptor beads were then added to the plates to a final concentration of 10 μg/mL in 25 μL assay buffer. The mixture was incubated for 1 h at 4° C. before detection. The IC50 value was determined by nonlinear least-square analysis of GraphPad Prism 5.0. The Ki values were derived from the IC50 values using a method reported by Nikolovska-Coleska et al (Nikolovska-Coleska, Z.; Wang, R.; Fang, X.; Pan, H.; Tomita, Y.; Li, P.; Roller, P. P.; Krajewski, K.; Saito, N. G.; Stuckey, J. A.; Wang, S. Development and optimization of a binding assay for the XIAP BIR3 domain using fluorescence polarization. Anal. Biochem. 2004, 332, 261-273). The assays were conducted under the conditions required by Nikolovska-Coleska et al.'s equation for determining the Ki values. All of the experiments were performed in triplicate. The results were expressed as mean±standard deviation.

[1] = Example 1 compounds, experiment 3, read-out: Ki (μM ± SD) experiment 3
[2] = Example 1 compounds, experiment 4, read-out: Ki (μM ± SD) experiment 4
[3] = Example 2 compounds, experiment 1, read-out: Ki (μM ± SD) experiment 1
[4] = Example 2 compounds, experiment 2, read-out: Ki (μM ± SD) experiment 2

SMILES	Ki [1] [µM]	Ki [2] [µM]	Ki [3] [µM]	Ki [4] [µM]
CC(=O)Nc1cc(F)cc(C(=O)N2CCN(C(=O)c3ccc(O[C@H]4CCNC4)c(C4CCCCC4)c3)C(C(=O)NCC(C)C)C2)c1 (stereo partly drawn) [Compound 23, 4-(3-Acetamido-5-fluorobenzoyl)-1-(3-cyclohexyl-4-(((S)-pyrrolidin-3-yl)oxy)benzoyl)-N-isobutylpiperazine-2-carboxamide trifluoroacetate]	> 1000	> 1000		
NCCCC(=O)Nc1cc(F)cc(OC2CCN(C(=O)c3ccc(OC4CCNC4)c(C4CCCCC4)c3)CC2)c1 (stereo not shown) [Compound 6, 4-amino-N-(3-((1-(3-cyclohexyl-4-(pyrrolidin-3-yloxy)benzoyl)piperidin-4-yl)oxy)-5-fluorophenyl)butanamide dihydrochloride]			56.9 ± 8.34	24.2 ± 2.7
CNCc1cn(-c2cc(F)cc(C(=O)N3CCN(C(=O)c4ccc(O[C@H]5CCNC5)c(C5CCCCC5)c4)CC3)c2)nn1 [Compound 32, (S)-(4-(3-Cyclohexyl-4-(pyrrolidin-3-yloxy)benzoyl)piperazin-1-yl) (3-fluoro-5-(4-((methylamino)methyl)-1H-1,2,3-triazol-1-yl)phenyl) methanone dihydrochloride]	> 1000			
O=C(c1ccc(O[C@H]2CCNC2)c(C2CCCCC2)c1)N1CCC(Oc2cc(F)cc(N3CCNCC3)c2)CC1 [Compound 1, (S)-(3-cyclohexyl-4-(pyrrolidin-3-yloxy)phenyl) (4-(3-fluoro-5-(piperazin-1-yl)phenoxy)piperidin-1-yl) methanone dihydrochloride]			12.3 ± 1.74	25.4 ± 2.43

Results, then the compound that gave them:

Ki [1] [µM]	Ki [2] [µM]	Ki [3] [µM]	Ki [4] [µM]	SMILES
560 ± 120	740 ± 150			CC(=O)Nc1cc(F)cc(C(=O)N2CCN(C(=O)c3ccc(O[C@H]4CCNC4)c(C4CCCCC4)c3)C(C(=O)N(C)Cc3ccccc3)C2)c1 (stereo partly drawn) [Compound 29, 4-(3-Acetamido-5-fluorobenzoyl)-N-benzyl-1-(3-cyclohexyl-4-(((S)-pyrrolidin-3-yl)oxy)benzoyl)-N-methylpiperazine-2-carboxamide trifluoroacetate]
200 ± 20	140 ± 17			CNC(=O)C1CN(C(=O)c2cc(F)cc(NC(C)=O)c2)CCN1C(=O)c1ccc(O[C@H]2CCNC2)c(C2CCCCC2)c1 (stereo partly drawn) [Compound 17, 4-(3-Acetamido-5-fluorobenzoyl)-1-(3-cyclohexyl-4-(((S)-pyrrolidin-3-yl)oxy)benzoyl)-N-methylpiperazine-2-carboxamide trifluoroacetate]
> 1000	> 1000			CC(=O)Nc1cc(F)cc(C(=O)N2CCN(C(=O)c3ccc(O[C@H]4CCNC4)c(C4CCCCC4)c3)C(C(=O)N(C)C(C)C)C2)c1 (stereo partly drawn) [Compound 22, 4-(3-Acetamido-5-fluorobenzoyl)-1-(3-cyclohexyl-4-(((S)-pyrrolidin-3-yl)oxy)benzoyl)-N-isopropyl-N-methylpiperazine-2-carboxamide trifluoroacetate]
